Test results: US6387395B1, “N-[1, (1-1) -dialkyloxy] - and N- [1, (1-1) -dialkenyloxy]- alk-1-yl-N,N,N-tetrasubstituted ammonium lipids and uses therefor” (priority 1985, dated 2002)
pIC50: −log10 of the molar value.

Columns and labels:
mouse L-cells [1] = assay: Cytotoxicity of dsRNA introduced into cells (trypan blue viability); assay type: cell-based
Description: Interferon treatment of various cells including both mouse and human cells results in induction of an enzyme, 2-5A synthetase, which when activated by double stranded RNA produces 2-5A. 2-5A is a polymer of ATP that contains unique 2′-5′ linkages rather than the standard 3′-5′ linkages. 2-5A is effectively a communication molecule which activates a latent 2′-5′ endonuclease resulting in degradation of cellular mRNA. […] In the presence of double stranded RNA, 2-5A is produced and can be produced in sufficient concentrations to degrade the majority of the cellular RNA, including ribosomal RNA, resulting in cell death. In this respect, this system can be used as cytotoxic assay to analyze the capacity of a compound to introduce double stranded RNA into the cytoplasm of a cell. The double stranded RNA commonly used is poly IC, a commercially available compound which is used experimentally and classically to induce interferon by methods well known to those familiar in the art. Poly IC will not penetrate cells and cause cytotoxic effects alone, but requires a vehicle to help carry it across the cell membrane. The most common agent used for this purpose is DEAE dextran in experimental cell culture systems and a complex of carboxymethyl cellulose and polylysine in clinical use. […]

Vero or L929 cells = assay: Inhibition of protein synthesis ([3H]leucine) by 2-5A, calcium phosphate coprecipitation; assay type: cell-based
Description: Oligoadenylates of the general structure ppp(A2′p)nA, n≧2, are referred to as “2-5A”. 2-5A molecules are well known, to those skilled in the art, to bind to an intracellular endonuclease resulting in activation of the endonuclease with subsequent cleavage of ribosomal and messenger RNA, resulting in inhibition of protein synthesis. […] A calcium phosphate coprecipitation technique can be employed to artificially introduce 2-5A into cells, which can be monitored by inhibition of protein synthesis. Thus 10^−5 to 10^−9 M 2-5A was added to a solution of 120 mM CaCl2, which was then added dropwise into bubbled Hepes buffered saline, pH 7.05 (8.0 g NaCl, 0.37 g KCl, 0.125 g Na2HPO4″2H2O, 1.0 g glucose, and 5.0 g Hepes per liter). A final sample volume of 0.5 ml was added to quadruplicate wells of Costar 24 well plates containing confluent Vero or L929 cells. After 45 minutes at room temperature, an additional 0.5 ml of media was added to each well and incubated an additional 90 minutes at 37° C. The solutions were then removed by aspiration, the cells were labelled for 90 minutes with [^3H] leucine (1 μCi/0.5 ml/well), and the trichloroacetic acid (TCA)-precipitable radioactivity was determined after incubating 30 minutes with cold 10% TCA, washing, harvesting the cells with 0.1 M NaOH, neutralizing with HCl, and quantitating the radioactivity by liquid scintillation counting. […] 50%-maximal inhibition occurred at approximately 10^−9 M 2-5A. However, the calcium phosphate treatment was very toxic to the cells, as determined from their morphology as well as approximately up to 40% reduction in protein synthesis of the cells receiving only the calcium phosphate treatment but no 2-5A.

MSN610.2 cells = assay: Stable transfection frequency (drug resistant colonies); assay type: cell-based, rat; conditions: MSN610.2, pSV2neo 1 μg with 10 μg carrier DNA
Description: (§1) (b) Treatment of cells—Just confluent 100 mm tissue culture plates of cells are washed 2× with 5 ml of HBS and 3 ml of the DNA-lipid solution is added. The cells are incubated for 3-5 hours at 37° and then 10 ml of DMEM+10% fcs is added. After incubation for 16 hours at 37° the medium is replaced with 10 ml fresh medium and cells are harvested by scraping 2-3 days later. Cell extracts were prepared and CAT assays performed as previously described.
(§2) Cells were transfected with calcium phosphate precipitated DNA as described with the addition of a glycerol shock. Similarly cells were transfected with the DEAE-dextran method as described.

Vero cells = assay: Protein synthesis ([3H]leucine) in cells treated with DOTMA liposomes / 2-5A analog; assay type: cell-based; conditions: 6 hours incubation, alone (no DOTMA); 2-5A analog at 10^−6 M
Description: Oligoadenylates of the general structure ppp(A2′p)nA, n≧2, are referred to as “2-5A”. 2-5A molecules are well known, to those skilled in the art, to bind to an intracellular endonuclease resulting in activation of the endonuclease with subsequent cleavage of ribosomal and messenger RNA, resulting in inhibition of protein synthesis. […] A calcium phosphate coprecipitation technique can be employed to artificially introduce 2-5A into cells, which can be monitored by inhibition of protein synthesis. […] The solutions were then removed by aspiration, the cells were labelled for 90 minutes with [^3H] leucine (1 μCi/0.5 ml/well), and the trichloroacetic acid (TCA)-precipitable radioactivity was determined after incubating 30 minutes with cold 10% TCA, washing, harvesting the cells with 0.1 M NaOH, neutralizing with HCl, and quantitating the radioactivity by liquid scintillation counting. […] However, the calcium phosphate treatment was very toxic to the cells, as determined from their morphology as well as approximately up to 40% reduction in protein synthesis of the cells receiving only the calcium phosphate treatment but no 2-5A.
Cells were incubated and protein synthesis was determined as described above except that the 60 mM CaCl2 was not included. […] In another test, cells were incubated with samples for 2, 6, or 18 hours and protein synthesis was determined as described above.

Ψ2 cells = assay: Stable transfection frequency (drug resistant colonies); assay type: cell-based, murine
Description: as §1, §2

L-TK cells = assay: as above; assay type: cell-based, murine; conditions: pSV2neo 1 μg with 10 μg carrier DNA
Description: as §1, §2

TA1 cells = assay: as above; assay type: cell-based, murine
Description: as §1, §2

mouse L-cells [2] = assay: DNA transfection of mouse L-cells; assay type: cell-based
Description: (§3) (a) Formation of the lipid-DNA complexBoth DNA and lipid are diluted to 1.5 ml each with HBS (150 mM NaCl, 20 mM Hepes pH 7.4) and then mixed. The DNA lipid complexes form immediately. A typical transfection would use 1 to 10 μg DNA and 100 μg of total lipid (DOTMA:PE, 1:1).
(b) Treatment of cells—Just confluent 100 mm tissue culture plates of cells are washed 2× with 5 ml of HBS and 3 ml of the DNA-lipid solution is added. […] After incubation for 16 hours at 37° the medium is replaced with 10 ml fresh medium and cells are harvested by scraping 2-3 days later. Cell extracts were prepared and CAT assays performed as previously described. For stable transfections 50% confluent cells were treated as above except that 2 days after transfection cells were passaged and grown in selective medium for either neomycin resistance (0.4 mg/ml G418) or E. coli XGPRT expression.

[3] = Solubility of drug in phosphate buffered saline; assay type: physicochemical
Description: For example, 1-[4-(4-chlorophenyl)-2-(2,6-dichlorophenylthio)-n-butyl] imidazole nitrate without the presence of any of the compounds of this invention is insoluble in aqueous buffer (phosphate buffered saline, pH 7.4).
A 0.3% soluble preparation of the above drug was prepared using the following method:
18 mg of 1-[4-(4-chlorophenyl)-2-(2,6-dichlorophenylthio)-n-butyl] imidazole nitrate and 482 mg of N-(2,3-di-(9-(Z)-octadecenyloxy)-prop-1-yl-N,N,N-trimethylammonium chloride were dissolved in methylene dichloride. The methylene dichloride was evaporated under a stream of nitrogen and the dried film placed under vacuum overnight. The dried film was suspended in 6 ml phosphate buffered saline, pH 7.4, and sonicated to clarity.

CV-1 cells = assay: Transient transfection with pSV2CAT, CAT activity; assay type: cell-based, monkey; conditions: CV-1 and COS 7 cells
Description: as §3
(§4) (b) Treatment of cells—Just confluent 100 mm tissue culture plates of cells are washed 2× with 5 ml of HBS and 3 ml of the DNA-lipid solution is added. The cells are incubated for 3-5 hours at 37° and then 10 ml of DMEM+10% fcs is added. After incubation for 16 hours at 37° the medium is replaced with 10 ml fresh medium and cells are harvested by scraping 2-3 days later. Cell extracts were prepared and CAT assays performed as previously described. For stable transfections 50% confluent cells were treated as above except that 2 days after transfection cells were passaged and grown in selective medium for either neomycin resistance (0.4 mg/ml G418) or E. coli XGPRT expression.
as §2
Cells transfected with the plasmid pSV2CAT express CAT enzyme activity that can be measured in cell extracts 2 days after transfection. […]

[4] = DNA-lipid complex formation on sucrose density gradient; assay type: physicochemical; conditions: lipid mixed with DNA at a ratio of 5:1 (wt:wt), gentle mixing
Description: DNA interacts spontaneously with solutions of DOTMA to form lipid-DNA complexes. This complex formation is due presumably to ionic interactions between the positively charged group on the DOTMA molecule and the negatively charged phosphate groups on the DNA. Complex formation was examined using a sucrose density gradient (not shown). In the absence of lipid, DNA migrated to the bottom of the gradient while lipid, in the absence of DNA, floated at the top. When lipid was mixed with DNA at a ratio of 5:1 (wt:wt) all the DNA migrated with the lipid. The association of 100% of the DNA with DOTMA after gentle mixing contrasts with conventional liposome encapsulation procedures which usually entrap less than 10% of the DNA, require an additional purification step to remove unencapsulated DNA or involve potentially destructive conditions such as vigorous agitation or sonication.

JZ.1 cells = assay: Transient transfection with pSV2CAT, CAT activity; assay type: cell-based, rat
Description: as §3, §4, §2

In the case of Poly IC, the “Cell Survival” value (mouse L-cells [1]; 1 million cells, 24 hrs treatment, trypan blue) was 100% and the “frequency of surviving cells” value (mouse L-cells [1]; poly IC introduced by the DOTMA lipid) was 1×10^−6.

For ppp(A2′p)2A, the pIC50 (Vero or L929 cells; after the calcium-phosphate precipitation technique, read-out: 50%-maximal inhibition of protein synthesis) was roughly 9.00 and the “inhibition of protein synthesis” value (Vero or L929 cells; all concentrations, without calcium phosphate coprecipitation) was “no inhibition of protein synthesis”.

For calcium phosphate, the “reduction in protein synthesis” value (Vero or L929 cells; calcium phosphate treatment only, no 2-5A) was “up to 40%”, the “Frequency × 10^5” value (MSN610.2 cells) was 1.3 and the “% of protein synthesis of untreated cells” value (Vero cells) was 64±3%. The “Frequency × 10^5” value (Ψ2 cells; Ψ2, pZIPC5a 7 μg) was 1.8, the “Frequency × 10^5” value (Ψ2 cells; Ψ2, pZIPSVX 7 μg) was 0.6 and the “Frequency × 10^5” value (L-TK cells) was 3. The “Frequency × 10^5” value (TA1 cells; TA1, pMSGC5a 7 μg) was 1.3, the “Frequency × 10^5” value (TA1 cells; TA1, pSV2neo 1 μg with 10 μg carrier DNA) was 2 and the “Frequency × 10^5” value (TA1 cells; TA1, pZIPSVX 7 μg) was 0.7.

With “5′-triphosphophoryladenylyl-(2′→5′)adenylyl-(2′→5′)adenylyl-(2′→6′)(3′-aza-N-hexyl-1′,2′,3′,4′-tetradeo xyhexopyranos-1′-yl)adenine [2-5A analog]” the “% of protein synthesis of untreated cells” value (Vero cells) was 82±14%.

In the case of CCCCCCCCCCCCCCCCCCN [stearylamine], the “efficacy as mediators of DNA transfection” value (mouse L-cells [2]) was “little efficacy”.

In the case of Clc1ccc(CCC(Cn2ccnc2)Sc2c(Cl)cccc2Cl)cc1.O=[N+]([O-])O (stereo not shown) [1-[4-(4-chlorophenyl)-2-(2,6-dichlorophenylthio)-n-butyl] imidazole nitrate], the “soluble preparation of drug” value ([3]; 18 mg drug with 482 mg DOTMA in 6 ml phosphate buffered saline pH 7.4, sonicated to clarity) was 0.3% and the “solubility in aqueous buffer” value ([3]; phosphate buffered saline, pH 7.4, without compounds of the invention) was “insoluble”.

In the case of CCCCCCCC/C=C\CCCCCCCCOCC(C[N+](C)(C)C)OCCCCCCCC/C=C\CCCCCCCC.[Cl-] (stereo not shown) [DOTMA, N-(2,3-di(9-(Z)-octadecenyloxy))-prop-1-yl-N,N,N-trimethylammonium chloride], the “fold increase in CAT activity relative to transient transfection with DEAE-dextran” value (CV-1 cells) was 6-11 fold, the “DNA associated with lipid” value [4] was 100% and the “CAT activity (% of control)” value (mouse L-cells [2]; serum present from the outset) was “less than 5%”. The “fold enhancement over the DEAE-dextran procedure” value (JZ.1 cells) was no less than 80 fold.

For CCCCCCCCCCCCCCCCCC[N+](C)(C)CCCCCCCCCCCCCCCCCC.[Br-] [dioctadecyl dimethyl ammonium bromide], the “efficacy as mediators of DNA transfection” value (mouse L-cells [2]) was “little efficacy”.
